For 2 molecules, Activity results are on record in ChEMBL document CHEMBL1133868, “Synthesis of P(1)-Citronellyl-P(2)-alpha-D-pyranosyl pyrophosphates as potential substrates for the E. coli undecaprenyl-pyrophosphoryl-N-acetylglucoseaminyl transferase MurG” (Bioorg Med Chem Lett, 2001).

Calls of active or inactive are those of the source. The rule behind the calls is not given here.

The test system of this experiment is Bacillus subtilis. As to the kind of experiment: Tested for antimicrobial activity against Bacillus Subtilis; Not active. It counts as functional, organism-based.

With `CC(=O)NC1C(OP(=O)(O)OP(=O)(O)OCC[C@H](C)CCC=C(C)C)OC(CO)C(O)C1O[C@H](C)C(=O)O` (some centres not stated), the result was inactive.
As for `CC(C)=CCC[C@@H](C)CCOP(=O)(O)OP(=O)(O)O[C@H]1O[C@@H](CO)[C@@H](O)[C@H](O)[C@@H]1O`, the entry is “inactive”.
